Data as given in ChEMBL document CHEMBL1126307, “Conformational studies of muscarone analogues: X-ray analysis and molecular mechanics calculations” (J Med Chem, 1992).

Assays:
Assay type in all cases: functional
[1] = Eudismic ratio was measured
Cavia porcellus [2] = species on record: Cavia porcellus; test: Muscarinic potency was measured in guinea pig ileum; settings: for EC50: Cavia porcellus, Ileum
Rattus norvegicus [3] = species on record: Rattus norvegicus; test: Muscarinic potency was measured in rat bladder; settings: for EC50: Rattus norvegicus
Rattus norvegicus [4] = species on record: Rattus norvegicus; test: Muscarinic potency was measured in rat jejunum; settings: for EC50: Rattus norvegicus, Jejunum
Cavia porcellus [5] = species on record: Cavia porcellus; test: Muscarinic potency was measured in guinea pig atria; settings: for EC50: Cavia porcellus

With `CN1OC(C[N+](C)(C)C)CC1=O` (racemic) [listing 1 of 2 here] the ER [1] was 2.5.
`C[C@@H]1O[C@H](C[N+](C)(C)C)CC1=O` (racemic) [listing 1 of 2 here] showed an ER [1] of 3.1.
With `C[C@H]1CC[C@@H](C[N+](C)(C)C)O1` (racemic) the “-Log EC50” value (Cavia porcellus [2]) was 6.87, the “-Log EC50” value (Rattus norvegicus [3]) was 5.62 and the “-Log EC50” value (Rattus norvegicus [4]) was 6.19. For the same compound, the “-Log EC50” value (Cavia porcellus [5]) was 5.88.
With `C[C@H]1OC[C@@H](C[N+](C)(C)C)O1` [listing 1 of 2 here] the ER [1] was 59.
For `CN1OC(C[N+](C)(C)C)CC1=O` (racemic) [listing 2 of 2 here], the “-Log EC50” value (Cavia porcellus [2]) was 7.95, the “-Log EC50” value (Rattus norvegicus [3]) was 6.44 and the “-Log EC50” value (Rattus norvegicus [4]) was 7.13. For the same compound, the “-Log EC50” value (Cavia porcellus [5]) was 7.62.
`C[C@H]1OC[C@@H](C[N+](C)(C)C)O1` (racemic) [listing 1 of 2 here] gave an ER [1] of 59.
For `CN1OC(C[N+](C)(C)C)CC1=O` (stereo in doubt; 4) [listing 1 of 2 here], the EC50 (Cavia porcellus [2]) was 11.2 nM, the EC50 (Rattus norvegicus [3]) was 363 nM and the EC50 (Rattus norvegicus [4]) was 74.1 nM. It also gave an EC50 (Cavia porcellus [5]) of 24 nM.
Work on `C[C@@H]1O[C@H](C[N+](C)(C)C)CC1=O` (racemic) [listing 2 of 2 here] yielded an EC50 (Cavia porcellus [2]) of 1 nM, an EC50 (Rattus norvegicus [4]) of 12.9 nM and an EC50 (Cavia porcellus [5]) of 2.4 nM.
`C[C@H]1CC[C@@H](C[N+](C)(C)C)O1` gave an EC50 (Cavia porcellus [2]) of 135 nM, an EC50 (Rattus norvegicus [3]) of 2400 nM and an EC50 (Rattus norvegicus [4]) of 646 nM. The EC50 (Cavia porcellus [5]) was 1320 nM.
`C[C@@H]1O[C@H](C[N+](C)(C)C)C[C@H]1O` [MUSCARINE] showed an EC50 (Cavia porcellus [2]) of 31.6 nM, an EC50 (Rattus norvegicus [3]) of 575 nM and an EC50 (Rattus norvegicus [4]) of 155 nM. The ER [1] was 331 and the EC50 (Cavia porcellus [5]) was 58.9 nM.
For `C[C@@H]1O[C@H](C[N+](C)(C)C)CC1=O` [listing 1 of 2 here], the ER [1] was 3.1.
With `C[C@@H]1O[C@H](C[N+](C)(C)C)CS1` [listing 1 of 2 here] the EC50 (Cavia porcellus [2]) was 5.89 nM, the EC50 (Rattus norvegicus [3]) was 229 nM and the EC50 (Rattus norvegicus [4]) was 28.2 nM. The EC50 (Cavia porcellus [5]) was 42.7 nM.
In the case of `C[C@@H]1O[C@H](C[N+](C)(C)C)CS1` (mixture of isomers) [listing 1 of 2 here], the “-Log EC50” value (Cavia porcellus [2]) is reported as 8.23, the “-Log EC50” value (Rattus norvegicus [3]) is reported as 6.64 and the “-Log EC50” value (Rattus norvegicus [4]) is reported as 7.55. The “-Log EC50” value (Cavia porcellus [5]) was 7.37.
`C[C@@H]1O[C@H](C[N+](C)(C)C)CS1` [listing 2 of 2 here] showed an ER [1] of 170.
`C[C@@H]1O[C@H](C[N+](C)(C)C)CC1O` (mixture of isomers) showed an EC50 (Cavia porcellus [2]) of 31.6 nM, an EC50 (Rattus norvegicus [3]) of 575 nM and an EC50 (Rattus norvegicus [4]) of 155 nM. For the same compound, the ER [1] was 331 and the EC50 (Cavia porcellus [5]) was 58.9 nM.
In the case of `C[C@H]1OC[C@@H](C[N+](C)(C)C)O1` [listing 2 of 2 here], the EC50 (Cavia porcellus [2]) is reported as 4.17 nM, the EC50 (Rattus norvegicus [3]) is reported as 123 nM and the EC50 (Rattus norvegicus [4]) is reported as 26.3 nM. For the same compound, the EC50 (Cavia porcellus [5]) was 9.55 nM.
`CN1OC(C[N+](C)(C)C)CC1=O` (stereo in doubt; 4) [listing 2 of 2 here] gave an ER [1] of 2.5.
In the case of `C[C@@H]1O[C@H](C[N+](C)(C)C)CC1=O` [listing 2 of 2 here], the “-Log EC50” value (Cavia porcellus [2]) is reported as 9, the “-Log EC50” value (Rattus norvegicus [3]) is reported as 7.28 and the “-Log EC50” value (Rattus norvegicus [4]) is reported as 7.89. For the same compound, the “-Log EC50” value (Cavia porcellus [5]) was 8.62.
`C[C@@H]1O[C@H](C[N+](C)(C)C)CS1` (mixture of isomers) [listing 2 of 2 here] gave an ER [1] of 170.
For `C=C1C[C@@H](C[N+](C)(C)C)O[C@H]1C`, the “-Log EC50” value (Cavia porcellus [2]) was 7.38, the “-Log EC50” value (Rattus norvegicus [3]) was 6.13 and the “-Log EC50” value (Rattus norvegicus [4]) was 6.78. The “-Log EC50” value (Cavia porcellus [5]) was 6.1.
With `C=C1C[C@@H](C[N+](C)(C)C)O[C@H]1C` (racemic) the EC50 (Cavia porcellus [2]) was 41.7 nM, the EC50 (Rattus norvegicus [3]) was 741 nM and the EC50 (Rattus norvegicus [4]) was 166 nM. The EC50 (Cavia porcellus [5]) was 794 nM.
In the case of `C[C@H]1OC[C@@H](C[N+](C)(C)C)O1` (racemic) [listing 2 of 2 here], the “-Log EC50” value (Cavia porcellus [2]) is reported as 8.38, the “-Log EC50” value (Rattus norvegicus [3]) is reported as 6.91 and the “-Log EC50” value (Rattus norvegicus [4]) is reported as 7.58. The “-Log EC50” value (Cavia porcellus [5]) was 8.02.
